Values joined by “and” are separate entries in the source; they are usually repeats but may differ in a detail not shown here. Equal values may be shown once. Inconclusive results and toxic doses are left out. The calls were made as follows: active = survival T/C of 150% or more; inactive = T/C below 125% in these data.
Tested on: CD2F1 mice, L1210 leukemia ip, survival T/C
Experiment: NCI In Vivo Anticancer Drug Screen. Data for tumor model L1210 Leukemia (intraperitoneal) in CD2F1 (CDF1) mice
Settings: endpoint: mean survival time, higher = longer survival
Outline: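 Implant tumor; dose compound or vehicle; measure endpoint in both groups; report treated divided by control.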

[1] = dose: 100.0 mg/kg/injection, schedule: Q01DX001 (ip), vehicle: saline with Tween-80
[2] = dose: 200.0 mg/kg/injection, schedule: Q01DX001 (ip), vehicle: saline with Tween-80
[3] = dose: 100.0 mg/kg/injection, schedule: Q04DX003 (ip), vehicle: saline with Tween-80
[4] = dose: 200.0 mg/kg/injection, schedule: Q04DX003 (ip), vehicle: saline with Tween-80
[5] = dose: 100.0 mg/kg/injection, schedule: Q04DX003 (ip), vehicle: saline
[6] = dose: 200.0 mg/kg/injection, schedule: Q04DX003 (ip), vehicle: saline

Measured: T/C

CCCCCC(C=O)C(O)(C(F)(F)F)C(F)(F)Cl (configuration not stated)
inactive: dose: 100.0 mg/kg/injection, schedule: Q04DX003 (ip), vehicle: Klucel (hydroxypropylcellulose) (HPC) 96 % of control | dose: 200.0 mg/kg/injection, schedule: Q04DX003 (ip), vehicle: Klucel (hydroxypropylcellulose) (HPC) 91 % of control | dose: 400.0 mg/kg/injection, schedule: Q04DX003 (ip), vehicle: Klucel (hydroxypropylcellulose) (HPC) 96 % of control

O=C1C=CC(=O)C2C3C=CC(C/C=C\C3)C12 (configuration not stated)
inactive: dose: 12.5 mg/kg/injection, schedule: Q04DX002 (ip), vehicle: saline with Tween-80 105 % of control | dose: 25.0 mg/kg/injection, schedule: Q04DX002 (ip), vehicle: saline with Tween-80 94 % of control | dose: 50.0 mg/kg/injection, schedule: Q04DX002 (ip), vehicle: saline with Tween-80 94 % of control

O=C(O)C1=CC=C(c2ccccc2)C(=O)C1
inactive: dose: 12.5 mg/kg/injection, schedule: Q01DX009 (ip), vehicle: saline with Tween-80 100 % of control | dose: 25.0 mg/kg/injection, schedule: Q01DX009 (ip), vehicle: saline with Tween-80 98 % of control | dose: 50.0 mg/kg/injection, schedule: Q01DX009 (ip), vehicle: saline with Tween-80 88 % of control and 90 % of control | [1] 97 % of control | [2] 93 % of control

COc1ccc(Cc2nc(C)cc3cc(OC)c(OC)cc23)cc1OC
inactive: dose: 25.0 mg/kg/injection, schedule: Q01DX009 (ip), vehicle: water 92 % of control

[O]=[Zr]
inactive: dose: 75.0 mg/kg/injection, schedule: Q01DX001 (ip), vehicle: saline 94 % of control | dose: 150.0 mg/kg/injection, schedule: Q01DX001 (ip), vehicle: saline 97 % of control | dose: 300.0 mg/kg/injection, schedule: Q01DX001 (ip), vehicle: saline 98 % of control

Cc1ccc(O)c(N)c1
inactive: [3] 93 % of control | [4] 111 % of control

NC/C(=N\O)c1ccc(Cl)cc1
inactive: dose: 100.0 mg/kg/injection, schedule: Q01DX001 (ip), vehicle: saline 97 % of control | dose: 200.0 mg/kg/injection, schedule: Q01DX001 (ip), vehicle: saline 103 % of control

CCOC(=O)NCC1CCC(CO)CC1 (configuration not stated)
inactive: dose: 100.0 mg/kg/injection, schedule: Q04DX002 (ip), vehicle: saline with Tween-80 95 % of control | dose: 200.0 mg/kg/injection, schedule: Q04DX002 (ip), vehicle: saline with Tween-80 117 % of control | dose: 400.0 mg/kg/injection, schedule: Q04DX002 (ip), vehicle: saline with Tween-80 98 % of control

CCCCC(CC)COP(=O)(CC(CC)CCCC)OCC(CC)CCCC (configuration not stated)
inactive: [5] 86 % of control | [6] 94 % of control

Cc1c2c(ccc3ccccc32)c[n+]2ccccc12
inactive: dose: 1.56 mg/kg/injection, schedule: Q01DX009 (ip), vehicle: saline 98 % of control and 100 % of control | dose: 3.12 mg/kg/injection, schedule: Q01DX009 (ip), vehicle: saline 103 % of control and 106 % of control | dose: 6.25 mg/kg/injection, schedule: Q01DX009 (ip), vehicle: saline 104 % of control and 105 % of control | dose: 12.5 mg/kg/injection, schedule: Q01DX009 (ip), vehicle: saline 103 % of control and 108 % of control

Cc1ccc(C)c(NC(=O)Oc2ccc(F)cc2)c1
inactive: [1] 96 % of control | dose: 100.0 mg/kg/injection, schedule: Q01DX009 (ip), vehicle: saline with Tween-80 94 % of control and 97 % of control | [2] 86 % of control | dose: 200.0 mg/kg/injection, schedule: Q01DX009 (ip), vehicle: saline with Tween-80 101 % of control | dose: 400.0 mg/kg/injection, schedule: Q01DX001 (ip), vehicle: saline with Tween-80 92 % of control | dose: 400.0 mg/kg/injection, schedule: Q01DX009 (ip), vehicle: saline with Tween-80 93 % of control and 103 % of control

C=C/C(C)=N/Nc1ccc([N+](=O)[O-])cc1[N+](=O)[O-]
inactive: [3] 94 % of control | [4] 95 % of control | dose: 400.0 mg/kg/injection, schedule: Q04DX003 (ip), vehicle: saline with Tween-80 95 % of control

COc1ccc(CNCCCC2C3CCC(C3)C2CN)cc1 (configuration not stated)
inactive: [3] 95 % of control | [4] 95 % of control

NP(N)(=O)c1ccccc1
inactive: [5] 94 % of control | [6] 98 % of control | dose: 400.0 mg/kg/injection, schedule: Q04DX003 (ip), vehicle: saline 94 % of control
